Where two headings read alike, the source gives them in different places.
Columns and labels:
[1] = system: rat mast cell line (RBL-2H3); experiment: Antigen-induced release of hexosaminidase from a rat mast cell line (RBL-2H3); assay type: cell-based; details: tested at 0.3, 3, 10 and 30 μM, read-out: Hex IC50
Protocol: The anti-allergic effects of a compound of the present invention was evaluated by measuring its effect on antigen-induced secretion of hexosaminidase from a passively sensitized rat mast cell line. The ability of a test compound to inhibit the release of mast cell granule contents, e.g., histamine and hexosaminidase, is indicative of the anti-allergy and/or anti-asthma activity of the compound. Hexosaminidase is released from the mast cell granule along with histamine and other mediators during antigen challenge. The test is performed as follows.
RBL-2H3 cells are grown in culture and passively sensitized for 1 hour at 37° C. to dinitrophenol (DNP) using anti-human-DNP (IgE). Cells are incubated with test compound for 30 minutes at 37° C. and stimulated with 0.5 μg/ml DNP-HSA (antigen) for 30 minutes. Aliquots of the supernatant are removed and used to measure the amount of hexosaminidase released during challenge with the antigen. […] The effect of each test compound is determined as a percentage of the antigen-induced response (minus background release) obtained in the presence of DMSO alone. These values are used to determine the degrees of inhibition of antigen-induced hexosaminidase release from the cells.

[2] = system: Jurkat clone E6.1 cells; experiment: Antigen-induced (anti-CD3 mAb) calcium flux in Jurkat clone E6.1 cells; assay type: cell-based; details: for Calcium (% inhibition at 20 μM): anti-CD3 mAb 4 μg/mL, Fura 2AM
Description: Elevation of cytoplasmic calcium concentration is a common and crucial event which follows the activation of many types of cell surface receptors. Increases in intracellular calcium that occur following agonist activation of inositol lipid hydrolysis are the results of calcium release from the endoplasmic reticulum and the influx of calcium through the plasma membrane. Increases in cytosolic calcium concentration are involved in many important cellular responses in the inflammatory process including adhesion, motility, gene expression, proliferation, and degranulation. Changes in intracellular calcium centrations can affect both short and long term cellular responses. An assay method to evaluate a test compound's impact on calcium flux is provided as follows.
The resulting supernatants are discarded and each pellet is washed in 10 mL HBSS. Cell suspensions are accumulated and centrifuged for 5 minutes at 900 RPM to form a cell pellet. The resulting supernatant is discarded and the pellet is resuspended in HBSS at 1×10^7 cells/mL. The cell suspension is transferred to a 20 mm petri dish and incubated at 37° C., 5% CO2 for 20 minutes.
One volume of Fura 2AM is mixed to one volume of detergent Pluronic F127. Cells are labeled with 4 μL of probe solution to each mL of cell suspension. The petri dish is wrapped in aluminum foil to protect from light and placed on a plate shaker for 30 minutes at room temperature.
The following steps are done in the laminar flow hood with the fluorescent lights turned off. The petri dish is removed from the shaker and the labeled cell suspension is transferred to a 15 mL conical tube and washed twice with HBSS as above. The cell pellet is resuspended in 12 mL HBSS and left wrapped in foil for 30 minutes at room temperature. The labeled cell suspension is aliquoted (100 μL/well) into a Dynex 96 well white opaque tissue culture plate. […] Selected compounds were tested for dose related activity. Test samples and activator (anti—CD3 mAb at final concentration of 4 μg/mL, PharMingen) are added manually (50 μL), such that the minimum time to acquire the first data point after stimulation is approximately 30 seconds. The calcium influx response to anti-CD3 mAb is measured as an “end point” assay. The entire plate is read in 100 seconds using a kinetic of 1 second per well.
The plate is read before the addition of anti-CD3 to monitor non-specific effect of samples/drugs. Fluorescence emission is measured at 510 nm with excitation alternating between 340 and 380 every second using an excitation/emission filter pair. Data from these dual wavelengths are represented as a ratio of 2 excitations wavelengths. This ratio is independent of intracellular dye and cell concentrations, enabling real comparison between experiments.

[3] = system: sensitized Brown Norway rats; experiment: Ovalbumin-induced accumulation of inflammatory cells in lung lavage fluid of sensitized Brown Norway rats; assay type: in vivo, rat; details: p.o., corn oil vehicle, relative to control animals
Protocol: The ability of a compound to inhibit the allergen-induced accumulation of inflammatory cells such as eosinophils and neutrophils in the lavage fluid obtained from sensitized animals is indicative of that compound's anti-asthma activity. […] The test is conducted as follows.
Male Brown Norway rats are sensitized to ovalbumin by single intraperitoneal injection of 1 mg ovalbumin adsorbed to 100 mg A(OH)3 (alum) in 1 ml sterile saline (saline control rats receive only sterile saline) on day 1, and allowed to sensitize until day 21. […] Rats are challenged with 0.5% ovalbumin in saline generated using a Devillbis nebulizer for 60 min on day 21.
Forty-eight hrs after challenge, animals are sacrificed with an overdose of intraperitoneally-delivered sodium pentobarbitol and the lungs are lavaged with cold 2×7 ml phosphate buffered saline. The recovered lavage fluid is placed on ice. The bronchoalveolar lavage fluid is centrifuged and the supernatant removed. The pellet is resuspended in phosphate buffered saline at 4° C. Cytospins are prepared and stained for differentiation and enumeration of cell types.
Test compound was administered in 300 μl corn oil (Tables 7 and 8) or water (Table 9), which were used as vehicles. Control animals received 300 μl corn oil or water alone, i.e., no drug. […] A negative value in Table 7, 8, or 9 indicates an exacerbation of the effect over the control animal.

[4] = inhibition of DNP-HSA antigen-induced hexosaminidase release

Structure (SMILES)	IC50 [1, 4]	Calcium (% inhibition at 20 μM) [2]	also measured
CCC1(C)CCC2=C1CCC1C2C(O)C(O)C2CC(Nc3ccccc3)CCC21C.Cl (mixture of isomers) [Compound 144]	6.9 µM	13.0%	
CCC1(C)CCC2=C1CCC1C2C(O)C(O)C2CC(Nc3cccc(C(F)(F)F)c3)CCC21C.Cl (mixture of isomers) [Compound 145]	22 µM	−0.2%	
C=C1CCC2C3C(CC[C@]12C)[C@@]1(C)CCC(N)CC1[C@@H](O)[C@@H]3O (some centres unmarked) [Compound 53]		−0.8%	IC50 ([1]; Rattus norvegicus, RBL-2H3, inhibition of DNP-HSA antigen-induced hexosaminidase release): 17.6 µM; % inhibition of eosinophils ([3]; 5 mg/kg/day for 4 days): 24%; % inhibition of lymphocytes ([3]; 5 mg/kg/day for 4 days): 13%; % inhibition of neutrophils ([3]; 5 mg/kg/day for 4 days): 57%
C=C1CCC2C3C(CC[C@]12C)[C@@]1(C)CCC(N)CC1[C@@H](O)[C@@H]3O (some centres unmarked) [Compound 54]		19.8%	% inhibition of eosinophils ([3]; 1 mg/kg/day for 4 days): −82%; % inhibition of lymphocytes ([3]; 1 mg/kg/day for 4 days): −7%; % inhibition of neutrophils ([3]; 1 mg/kg/day for 4 days): −19%
C=C1CCC2C3C(CC[C@]12C)[C@@]1(C)CCC(N)CC1[C@@H](OC)[C@@H]3OC (some centres unmarked) [Compound 80]	10.7 µM	7.4%	
CC(F)=C1CCC2C3C(CC[C@]12C)[C@@]1(C)CCC(N)CC1[C@@H](O)[C@@H]3O (some centres unmarked) [Compound 95]	13.5 µM	11.2%	% inhibition of eosinophils ([3]; 5 mg/kg/day for 4 days): 14%; % inhibition of lymphocytes ([3]; 5 mg/kg/day for 4 days): 30%; % inhibition of neutrophils ([3]; 5 mg/kg/day for 4 days): 45%
C=C1CCC2C3C(O)C(O)C4CC(NCc5ccccc5F)CCC4(C)C3CCC12C.CC(=O)O (centres unmarked) [Compound 101]		16.3%	
C=C1CCC2C3C(O)C(O)C4CC(NCc5cccc(C(F)(F)F)c5)CCC4(C)C3CCC12C.CC(=O)O (centres unmarked) [Compound 102]	10 µM	9.5%	
C=C1CCC2C3C(O)C(O)C4CC(NCc5ccccc5OC)CCC4(C)C3CCC12C.CC(=O)O (centres unmarked) [Compound 103]	11.1 µM	23.7%	
C=C1CCC2C3C(O)C(O)C4CC(NCc5ccc(OC(F)(F)F)cc5)CCC4(C)C3CCC12C.CC(=O)O (centres unmarked) [Compound 104]	9.5 µM	30.3%	
C=C1CCC2C3C(O)C(O)C4CC(NCc5cccc(Oc6ccccc6)c5)CCC4(C)C3CCC12C.CC(=O)O (centres unmarked) [Compound 105]	22.5 µM	10.2%	
C=C1CCC2C3C(O)C(O)C4CC(NCc5cccc([N+](=O)[O-])c5)CCC4(C)C3CCC12C (centres unmarked) [Compound 106]	8.8 µM	8.1%	
CC=C1CCC2C3C(O)C(O)C4CC(N5CCOCC5)CCC4(C)C3CCC12C.Cl (centres unmarked) [Compound 111]	9.3 µM	53.1%	
C/C=C1/CCC2C3C(CC[C@]12C)[C@@]1(C)CCC(NC)CC1[C@@H](O)[C@@H]3O (some centres unmarked) [Compound 113]	9.8 µM	45.0%	
CC=C1CCC2C3C(O)C(O)C4CC(NCCC)CCC4(C)C3CCC12C.Cl (centres unmarked) [Compound 114]		37.9%	
CC=C1CCC2C3C(O)C(O)C4CC(NCCCCC)CCC4(C)C3CCC12C.Cl (centres unmarked) [Compound 115]	11.1 µM	40.0%	
CC=C1CCC2C3C(O)C(O)C4CC(NC5CCCC5)CCC4(C)C3CCC12C (centres unmarked) [Compound 116]	9.6 µM		

Structure (SMILES)	IC50 [1, 4]	Calcium (% inhibition at 20 μM) [2]	also measured
CC(=O)O.CC=C1CCC2C3C(O)C(O)C4CC(NC5CCCCC5)CCC4(C)C3CCC12C (centres unmarked) [Compound 117]	6.6 µM	42.2%	
CC(=O)O.CC=C1CCC2C3C(O)C(O)C4CC(N5CCCC5)CCC4(C)C3CCC12C (centres unmarked) [Compound 118]	11 µM	41.8%	
CC=C1CCC2C3C(O)C(O)C4CC(NCCNCCC)CCC4(C)C3CCC12C.Cl.Cl (centres unmarked) [Compound 119]		54.5%	IC50 ([2]; dose response activity examined): ≤ 10 µM
CC=C1CCC2C3C(O)C(O)C4CC(NCCN(C)C)CCC4(C)C3CCC12C.Cl.Cl (centres unmarked) [Compound 120]	9.1 µM	44.0%	
CC(=O)O.CC=C1CCC2C3C(O)C(O)C4CC(N5CCNCC5)CCC4(C)C3CCC12C (centres unmarked) [Compound 121]	14.4 µM	42.4%	
CC=C1CCC2C3C(O)C(O)C4CC(NCCO)CCC4(C)C3CCC12C.Cl (centres unmarked) [Compound 122]	12.3 µM	31.4%	
CC=C1CCC2C3C(O)C(O)C4CC(NCCCCCO)CCC4(C)C3CCC12C.Cl (centres unmarked) [Compound 123]	16.7 µM	12.8%	
CC=C1CCC2C3C(O)C(O)C4CC(NCCNCCO)CCC4(C)C3CCC12C.Cl.Cl (centres unmarked) [Compound 124]		21.0%	% inhibition of eosinophils ([3]; 1 mg/kg/day for 4 days): −55%; % inhibition of lymphocytes ([3]; 1 mg/kg/day for 4 days): −26%; % inhibition of neutrophils ([3]; 1 mg/kg/day for 4 days): −76%
CC=C1CCC2C3C(O)C(O)C4CC(Nc5cccc(C)c5)CCC4(C)C3CCC12C.Cl (centres unmarked) [Compound 125]	39.4 µM	5.7%	
CC=C1CCC2C3C(O)C(O)C4CC(Nc5ccc(O)cc5)CCC4(C)C3CCC12C.Cl (centres unmarked) [Compound 126]	9.7 µM	45.0%	
CC=C1CCC2C3C(O)C(O)C4CC(Nc5ccc(S(N)(=O)=O)cc5)CCC4(C)C3CCC12C.Cl (centres unmarked) [Compound 127]	10.1 µM	29.4%	
C=C1CCC2C3C(CC[C@]12C)[C@@]1(C)CC[C@@H](NC(C)=O)CC1[C@@H](O)[C@@H]3O (some centres unmarked) [Compound 131]			% inhibition of eosinophils ([3]; 1 mg/kg/day for 4 days): 16%; % inhibition of lymphocytes ([3]; 1 mg/kg/day for 4 days): 21%; % inhibition of neutrophils ([3]; 1 mg/kg/day for 4 days): 57%
C=C1CCC2C3C(CC[C@]12C)[C@@]1(C)CC[C@@H](NC(=O)c2ccccc2)CC1[C@@H](O)[C@@H]3O (some centres unmarked) [Compound 132]	10 µM	19.6%	
C=C1CCC2C3C(CC[C@]12C)[C@@]1(C)CC[C@@H](NS(=O)(=O)C(C)C)CC1[C@@H](O)[C@@H]3O (some centres unmarked) [Compound 133]			% inhibition of eosinophils ([3]; 1 mg/kg/day for 4 days): −43%; % inhibition of lymphocytes ([3]; 1 mg/kg/day for 4 days): 28%; % inhibition of neutrophils ([3]; 1 mg/kg/day for 4 days): 40%
C=C1CCC2C3C(CC[C@]12C)[C@@]1(C)CC[C@@H](NS(=O)(=O)c2ccccc2)CC1[C@@H](O)[C@@H]3O (some centres unmarked) [Compound 134]	16.7 µM	25.1%	
Cc1cccc(CNC2CCC3(C)C(C2)C(O)C(O)C2C4=C(CCC23)C(C)(C)CC4)c1.Cl (centres unmarked) [Compound 140]	10.2 µM	21.5%	
COC1C(OC)C2CC(N)CCC2(C)C2CCC3=C(CCC3(C)C)C12.Cl (centres unmarked) [Compound 148]	29.2 µM	6.6%	
